Like-named read-outs stand apart in the source and are kept apart here.
B1: matuzumab: Humanized mAb; EGFR (antibody, chains of the INN, looked up, V domains shown)
VH: QVQLVQSGAEVKKPGASVKVSCKASGYTFTSHWMHWVRQAPGQGLEWIGEFNPSNGRTNYNEKFKSKATMTVDTSTNTAYMELSSLRSEDTAVYYCASRDYDYDGRYFDYWGQGTLVTVSS
VL: DIQMTQSPSSLSASVGDRVTITCSASSSVTYMYWYQQKPGKAPKLLIYDTSNLASGVPSRFSGSGSGTDYTFTISSLQPEDIATYYCQQWSSHIFTFGQGTKVEIK

What was measured:
[1] = tested on: A2780 ovarian cancer cells; test: Formazan dye (MTT) in-vitro cell growth assay, A2780; type: cell-based; conditions: for in vitro growth inhibition (in words): A2780, MTT assay, single drug
Protocol: Effect of FAS and ErbB inhibition on A2780 ovarian cancer cells (OCC). […] Cells were grown for three days in the presence of vehicle (0.1% DMSO) or synthetic inhibitor before cell number was estimated. Data in the charts represent means +/−SD of triplicate measurements.
(§1) Cells were plated at 0.5−5×10^3/well in 96-well plates. After adhesion, media ±drugs alone or in combination were added. Cell numbers were estimated after 3-5 days by using a colorimetric formazan dye assay (Biomedica, Vienna, Austria). Results (mean±SD, n=3) were expressed in percent of untreated (solvent) control. Statistical analysis of data from drug combination treatment experiments was performed using one-factorial ANOVA followed by Scheffe-test.
(§2) Yellow MTT (3-(4,5-Dimethylthiazol-2-yl)-2,5-diphenyltetrazolium bromide, a tetrazole) is reduced to purple formazan in the mitochondria of living cells (see Mosmann, T., J. Immunol. Methods, 65(1-2): 55-63, 1983).

[2] = tested on: SKOV3 ovarian cancer cells; test: Formazan dye (MTT) in-vitro cell growth assay, SKOV3; type: cell-based; conditions: for in vitro growth inhibition (in words): MTT assay, single drug
Protocol: as §1, with “Results (mean±SD, n=3) were expressed in percent of untreated (solvent) control.” left out
as §2

[3] = tested on: FASN mRNA; test: FASN mRNA expression by qRT-PCR in A2780 cells; type: cell-based, human; conditions: b102: within three days, pelitinib at doses as low as 3 μM
Description: (§3) RNA was extracted from the cells using TRI-REAGENT™ (Molecular Research Center, Cincinnati, Ohio) and subjected to reverse transcription—polymerase chain reaction (“RT-PCR”) using the TITAN ONE TUBE RT-PCR KIT™ system (Hoffmann-La Roche). Primers were: EGFR: 5′-[…]-3′ (SEQ ID NO:1) (forward, E1S) 5′-[…]-3′ (SEQ ID NO:2) (reverse, E1A); ErbB-2: 5′-[…]-3′ (SEQ ID NO:3) (forward, E2S2), 5′-[…]-3′ (SEQ ID NO:4) (reverse, E2A2); GAPDH: 5′-[…]-3′ (SEQ ID NO:5) (forward, GAPDH3S), 5′-[…]-3′ (SEQ ID NO:6) (reverse, GAPDH3A). Conditions for reverse transcription and amplification of the EGFR coding sequence were: 50° C., 30 minutes; 94° C., 2 minutes; 10 cycles (94° C., 30 seconds; 64.9° C., 30 seconds; 68° C., 90 seconds); 30 cycles (94° C., 30 seconds; 64.9° C., 30 seconds; 68° C., 90 seconds +5 seconds autoextension) and 68° C., 7 minutes. Conditions for ErbB2 and GAPDH were: 50° C., 30 minutes; 94° C., 2 minutes; 10 cycles (94° C., 30 seconds; 51° C., 30 seconds; 68° C., 45 seconds); 25 cycles (94° C., 30 seconds; 51° C., 30 seconds; 68° C., 45 seconds +5 seconds autoextension) and 68° C., 7 minutes. DNA products had the following sizes: EGFR: 1452 bp, ErbB2: 900 bp, GAPDH: 488 bp. Fragments were electrophoresed and stained with ethidium bromide.
(§4) Quantitative RT-PCR (“qRT-PCR”) was performed in the ABI PRISM 7000™ Sequence Detector (Applied Biosystems, Foster City, Calif.) using human EGFR, ErbB2, and FASN TaqMan® Gene Expression Assay systems (Applied Biosystems; Assay IDs: Hs00193306_m1, Hs00170433_m1, Hs00188012_m1) according to the manufacturer's instructions. β-actin and GAPDH (VIC™ and FAM labeled pre-developed TaqMan® Assay reagents, Applied Biosystems) were used as endogenous controls. EGFR, ErbB2, and FASN mRNA expression were calculated as described previously (Grunt, ibid).

[4] = tested on: FASN protein; test: FASN protein level by Western blotting in A2780 cells; type: cell-based; conditions: b102: within three days, pelitinib at doses as low as 3 μM
[5] = tested on: EGFR mRNA; test: EGFR mRNA by RT-PCR and qRT-PCR in A2780 cells; type: cell-based, human
Protocol: RNA was extracted from the cells using TRI-REAGENT™ (Molecular Research Center, Cincinnati, Ohio) and subjected to reverse transcription—polymerase chain reaction (“RT-PCR”) using the TITAN ONE TUBE RT-PCR KIT™ system (Hoffmann-La Roche). […] Conditions for ErbB2 and GAPDH were: 50° C., 30 minutes; 94° C., 2 minutes; 10 cycles (94° C., 30 seconds; 51° C., 30 seconds; 68° C., 45 seconds); 25 cycles (94° C., 30 seconds; 51° C., 30 seconds; 68° C., 45 seconds +5 seconds autoextension) and 68° C., 7 minutes. […] Fragments were electrophoresed and stained with ethidium bromide.
as §4

[6] = tested on: EGFR protein; test: EGFR protein and tyrosine phosphorylation by Western blot in A2780 cells; type: cell-based
[7] = tested on: ErbB2 mRNA; test: ErbB2 mRNA by RT-PCR and qRT-PCR in A2780 cells; type: cell-based, human
Description: as §3, §4

[8] = tested on: ErbB2 protein; test: Total and phosphorylated ErbB2 protein by Western blot in A2780 cells; type: cell-based
Protocol: (§5) Cells plated in culture media containing 5% fetal calf serum at a density of 2.6×10^5 (SKOV3) or 6×10^5 (A2780) in 60 mm dishes (Corning, Corning, N.Y.) were treated with FASN inhibitor C75, with small-molecule ErbB RTK inhibitors (RTKIs), with the MEK1/2 antagonist U0126 or with the PI3K inhibitor LY294002 for the indicated times and at various concentrations. In some experiments cells were stimulated for 5 or 10 min with 100 ng/ml EGF (Sigma) before lysis in RIPA buffer (Grunt et al., Biochem Biophys Res Commun 329:1253-1259, 2005). Proteins (20 μg/lane) were subjected to SDS-PAGE, blotted onto PVDF membranes and immunostained (see Grunt, ibid) using the following antibodies: 2 μg/ml goat anti-pEGFR(Tyr1173) (sc-12351), 1 μg/ml rabbit anti-ErbB2 (C-18) (sc-284), 1 μg/ml rabbit anti-pErbB2(Tyr1248) (sc-12352-R) (all from Santa Cruz Biotechnology Inc., Santa Cruz, Calif.), rabbit anti-EGFR 1:1,000 (2232), rabbit anti-AKT 1:1,000 (9272), rabbit anti-pAKT(Ser473) 1:1,000 (9271), rabbit anti-pAKT(Thr308) 1:1,000 (9275), rabbit anti-pERK1/2(Thr202/Tyr204) 1:1,000 (9101) (all from Cell Signaling Technology), rabbit anti-ERK1/2 1:3,000 (06-182, Upstate Biotechnology Inc., Lake Placid, N.Y.), 0.5 μg/ml mouse monoclonal anti-FASN (610963, BD Biosciences, San Jose, Calif.), or 0.67 μg/ml goat anti-human actin (1-19, sc-1616, Santa Cruz Biotechnology). Secondary antibodies were peroxidase-tagged donkey-anti-rabbit IgG (V795A, Promega, Madison, Wis.) or donkey-anti-goat IgG (sc-2020, Santa Cruz Biotechnology) at 1:15,000, respectively, or chicken anti-mouse IgG (sc-2954, Santa Cruz Biotechnology) at 1:10,000. Detection was performed by enhanced chemiluminescence.

[9] = tested on: FASN mRNA; test: FASN mRNA levels in SKOV3 cells; type: cell-based, human
Description: RNA was extracted from the cells using TRI-REAGENT™ (Molecular Research Center, Cincinnati, Ohio) and subjected to reverse transcription—polymerase chain reaction (“RT-PCR”) using the TITAN ONE TUBE RT-PCR KIT™ system (Hoffmann-La Roche). Primers were: EGFR: 5′-[…]-3′ (SEQ ID NO:1) (forward, E1S) 5′-[…]-3′ (SEQ ID NO:2) (reverse, E1A); ErbB-2: 5′-[…]-3′ (SEQ ID NO:3) (forward, E2S2), 5′-[…]-3′ (SEQ ID NO:4) (reverse, E2A2); GAPDH: 5′-[…]-3′ (SEQ ID NO:5) (forward, GAPDH3S), 5′-[…]-3′ (SEQ ID NO:6) (reverse, GAPDH3A). Conditions for reverse transcription and amplification of the EGFR coding sequence were: 50° C., 30 minutes; 94° C., 2 minutes; 10 cycles (94° C., 30 seconds; 64.9° C., 30 seconds; 68° C., 90 seconds); 30 cycles (94° C., 30 seconds; 64.9° C., 30 seconds; 68° C., 90 seconds +5 seconds autoextension) and 68° C., 7 minutes. […]
as §4

[10] = tested on: FASN protein; test: FASN protein levels by Western blotting in SKOV3 cells; type: cell-based
Protocol: as §5, with “Secondary antibodies were peroxidase-tagged donkey-anti-rabbit IgG (V795A, Promega, Madison, Wis.) or donkey-anti-goat IgG (sc-2020, Santa Cruz Biotechnology) at 1:15,000, respectively, or chicken anti-mouse IgG (sc-2954, Santa Cruz Biotechnology) at 1:10,000. Detection was performed by enhanced chemiluminescence.” left out

Row | Molecule | in vitro growth inhibition (in words) [1] | in vitro growth inhibition (in words) [2] | FASN mRNA expression, effect in words [3] | FASN protein expression, effect in words [4] | EGFR mRNA, effect in words [5] | EGFR total protein, effect in words [6] | ErbB2 mRNA, effect in words [7] | phosphorylated ErbB2 (pErbB2), effect in words [8] | total ErbB2 protein, effect in words [8] | further results
1 | C=CC(=O)Nc1cc2c(Nc3ccc(F)c(Cl)c3)ncnc2cc1OCCCN1CCOCC1 [canertinib] | growth inhibitory activity | growth inhibitory activity | effect was also seen | effect was also seen | does not diminish | does not diminish | fails to down-regulate | strongly diminishes | slightly attenuates | 
2 | CCOc1cc2ncc(C#N)c(Nc3ccc(F)c(Cl)c3)c2cc1NC(=O)C=CCN(C)C [EKB-569, 4-Dimethylamino-but-2-enoic acid [4-(3-chloro-4-fluoro-phenylamino)-3-cyano-7-ethoxy-quinolin-6-yl]-amide] | growth inhibitory activity | growth inhibitory activity | represses | represses | weak dose-dependent repression | abolishes | only weakly depresses | abolishes | abolishes | IC50 ([1]; Homo sapiens, 72 h, A2780 OCC, each individual inhibitor, 50% reduction of cell growth, three days, n = 3-5, read-out: IC50 (μM) Mean +/− SD): 5.14 µM; FASN mRNA expression, effect in words ([3]; listed as pelitinib): abrogated; FASN protein expression, effect in words ([4]; listed as pelitinib): abrogated; EGFR mRNA, effect in words ([5]; listed as pelitinib): dose-dependent down-regulation; EGFR tyrosine phosphorylation (activity), effect in words [6]: dose-dependent reduction; EGFR total protein, effect in words ([6]; listed as pelitinib): dose-dependent down-regulation; EGFR tyrosine phosphorylation (activity), effect in words ([6]; listed as pelitinib): completely abrogates; ErbB2 mRNA, effect in words ([7]; listed as pelitinib): do not appear to be affected; phosphorylated ErbB2 (pErbB2), effect in words ([8]; listed as pelitinib): abrogated; total ErbB2 protein, effect in words ([8]; listed as pelitinib): abrogated
3 | N#CC(=C(/N)Sc1ccccc1N)/C(C#N)=C(\N)Sc1ccccc1N [U0126] |  |  |  |  |  |  |  |  |  | FASN mRNA levels, effect in words [9]: does not affect; FASN protein levels, effect in words [10]: does not affect
4 | C#Cc1cccc(Nc2ncnc3cc(OCCOC)c(OCCOC)cc23)c1 [erlotinib] | does not significantly inhibit growth | does not significantly inhibit growth | effect was also seen | effect was also seen |  |  |  |  |  | 
5 | B1 |  |  |  |  |  |  |  |  |  | growth inhibition ([2]; antibody alone at 20 μg/ml): ~10%

Source: US20090325877A1, “Combination Product of Receptor Tyrosine Kinase Inhibitor and Fatty Acid Synthase Inhibitor for Treating Cancer” (Wyeth, priority 2008, published 2009)
